Assay results taken from patent US11759496B2, “Compounds and pharmaceutical use thereof in the treatment of cancer” (priority 2016, dated 2023).
Like-named read-outs stand apart in the source and are kept apart here. One block for each compound: values may come before it. Non-standard residues stand in square brackets, D forms with d. Residues, ends and D or L forms follow the SMILES beside them. NMeR = CN[C@@H](CCCNC(=N)N)C(=O)O; Nle = CCCC[C@H](N)C(=O)O

Tests used:
[1] = target: T1, CD47 (membrane preparation from MEC-1 cells) (Homo sapiens, UniProt Q08722); test: Binding affinity by biolayer interferometry (Octet RED96) on biotinylated MEC-1 cell membrane preparation
T1 construct: MEC-1 cell membrane preparation were biotinylated with the EZ-Link NHS-PEG4-Biotin kit; endogenous in cells; host or cells: MEC-1 cells (membrane preparation)
T1 sequence (Q08722 19-323): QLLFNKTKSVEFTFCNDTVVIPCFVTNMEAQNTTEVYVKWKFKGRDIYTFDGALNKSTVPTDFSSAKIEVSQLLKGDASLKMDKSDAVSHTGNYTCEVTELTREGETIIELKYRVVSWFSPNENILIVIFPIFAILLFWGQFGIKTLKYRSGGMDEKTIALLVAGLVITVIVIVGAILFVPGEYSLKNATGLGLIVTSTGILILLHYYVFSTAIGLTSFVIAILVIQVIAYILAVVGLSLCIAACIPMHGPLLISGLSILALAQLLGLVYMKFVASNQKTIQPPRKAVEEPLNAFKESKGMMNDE
Method: The binding affinities of peptides for a membrane preparation from MEC-1 cells were measured by biolayer interferometry on an Octet RED96 System (Pall FortéBio Corp., Menlo Park, Calif.).
The binding affinities of peptides for a membrane preparation from MEC-1 cells were measured by biolayer interferometry on an Octet RED96 System (Pall FortéBio Corp., Menlo Park, Calif.). This system monitors interference of light reflected from two sources (an internal reflection surface and the liquid/solid interface of a fiber optic sensor) to measure the rate of binding of molecules to the biosensor surface.
MEC-1 cell membrane preparation were biotinylated with the EZ-Link NHS-PEG4-Biotin kit from Thermo-Scientific. Biotinylated membranes were then loaded onto SuperStreptavidin (SSA) biosensors (Pall FortéBio Corp.) at empirically determined concentrations.
In order to highlight the pharmacological properties of these peptides, a systematic SAR study by the development of a binding assay allowing to the assessment of the affinity of the 4N1K analogues to CD47 was initiated. […] An Ala-scan to identify the pharmacophores of 4N1K was implemented.
The binding affinities of peptides for a MEC-1 cells membrane preparation were measured by biolayer interferometry on an Octet RED96 System (Pall FortéBio Corp., Menlo Park, Calif.). This system monitors interference of light reflected from two sources (an internal reflection surface and the liquid/solid interface of a fiber optic sensor) to measure the rate of binding of molecules to the biosensor surface. MEC-1 cells membrane preparation is biotinylated with the EZ-Link NHS-PEG4-Biotin kit from Thermo-Scientific and excess biotin is removed using desalting column from Thermo-Scientific. Biotinylated membranes are then loaded onto SuperStreptavidin (SSA) biosensors (Pall FortéBio Corp.) at empirically determined concentrations. […] Typically, the biosensors were pre-equilibrated in PBS containing either biotinylated membranes or biocytine 100 μg/mL. Biosensors are then equilibrated in assay buffer for 10 min, brought to baseline in assay buffer for 60 sec. and transferred to wells containing peptide in dose-response (association for 120 sec. and dissociation for 300 sec.). The double reference with either membrane-loaded biosensors without any peptide dose-response or biocytine-loaded biosensors with each peptide dose-response were run in parallel for background signal double subtractions. Binding kinetics were calculated using the FortéBio Data Analysis v8.2 software.

[2] = test system: B-chronic lymphocytic leukemia (CLL) primary cells; conditions: WO 2013/182650, cited from earlier work
[3] = test system: MEC-1 cells; test: MEC-1 cell death (PCD) after 2 h peptide treatment; assay type: cell-based; conditions: for MEC-1 Cell Death (%) 2 h, [peptides] = 200 μM: Table 3, 200 μM peptide
Method: Then the peptides structures were tested via NMR and X-ray. The peptides were also tested for their activity on MEC-1 and their KDs and Retention times on LCMS were determined.

[4] = Solubility of the peptides in water / aqueous buffer (NMR, CD samples); assay type: physicochemical; conditions: water
Method: CD spectra were recorded on a Jasco 815 spectropolarimeter (Jasco Inc., Easton, Md.) over the wavelength range 190-260 nm, at 0.2 nm intervals and 10 nm·min^−1 scan speed. Peptides were dissolved at 50 μM concentration in a 10 mM sodium phosphate buffer at pH 7.4, using 0.1 cm path length quartz cells (Hellma, Mullheim, Germany). CD spectra were deconvoluted with CDFriend program in order to estimate the peptide secondary structure content.
NMR experiments were recorded on a 500 MHz Bruker Avance III spectrometer (Wissembourg, France) equipped with a TCI cryoprobe. NMR samples were prepared in 50 mM sodium succinate buffer, pH 5, using 2 mM peptide concentration. Sodium 2,2-dimethyl-2-silapentane-d6-5-sulfonate (Sigma Aldrich) was added at 0.1 mM concentration for chemical shift calibration and measurement of the solubilized peptide concentration. NMR experiments were processed with TOPSPIN 2.1 software (Bruker) and spectra were analyzed with Sparky program. ^1H, ^13C and ^15N resonances were assigned using 2D ^1H-^1H TOCSY (DIPSI2 isotropic scheme of 70 ms duration), 2D ^1H-^1H ROESY (300 ms mixing time), 2D ^1H-^13C HSQC, 2D ^1H-^15N HSQC, and 2D ^1H-^13C HMBC spectra. The complete ^1H, ^13C and ^15N NMR assignments of peptides 4N1K, PKT2, PKHB1 and 4NGG are provided in Tables S1-S4 (supporting information). […] The chemical shift deviations of Ha protons and Cα carbons were calculated as the differences between observed chemical shifts and random coil values reported in water. The conformational analysis of thrombospondin-1 was carried out on the crystal structure of a C-terminal fragment of human thrombospondin-1 using Pymol (Schrödinger) and Procheck programs. Predictions of NMR chemical shifts on the X-ray structure were carried out using SHIFTX2 program.

[5] = test system: OSU cells; test: Deaths on OSU cells treated with PKT16 or PKT16-FF (FIG. 4); assay type: cell-based; conditions: 6 hours, control 9.5%
Method: FIG. 4: compares deaths on OSU cells treated with PKT16 or PKT16-FF. For PKT16, it can be seen that the reported deaths are of 11.1, 17.9 and 52.7% for concentrations of 25 μM, 50 μM and 100 μM respectively. For PKT16-FF, it can be seen that the reported deaths are of 16.6, 38.3 and 82.4% for concentrations of 25 μM, 50 μM and 100 μM respectively. The control test provided 9.5% death of the cells.
It was synthesized using common solide phase peptide synthesis technics as mentioned above.

[6] = test system: B CLL cells that have the C481S mutation BTK gene; test: Sensitivity of ibrutinib-resistant B CLL cells to PKT16; assay type: cell-based; conditions: resistance to Ibrutinib
[7] = test system: CLL cells; test: Cell death (Annexin-V and PI co-positivity) in CLL cells (FIG. 2); assay type: cell-based; conditions: 6 h
Method: FIG. 2A: cell death, measured as Annexin-V and PI co-positivity, was assessed leukemic cells treated 6 h with different concentrations of PKT16 or PKHB1. The data in the plot are the mean±s.d. (n=5). FIG. 2B: cell death induced by PKT16 (100 μM, 6 h) was measured in B-cells from twenty healthy donors and forty CLL patients. The percentages refer to the mean of the Annexin-V/PI-positive staining

[8] = Table 3, average of two or more measurements, NPD = Non Pertinent Data

Compound: CSCC[C@H](NC(=O)[C@@H](NC(=O)[C@@H](NC(=O)[C@H](Cc1ccc(O)cc1)NC(=O)[C@H](Cc1ccccc1)NC(=O)[C@H](CCCNC(=N)N)NC(=O)[C@@H](N)CCCCN)C(C)C)C(C)C)C(=O)N[C@@H](Cc1c[nH]c2ccccc12)C(=O)N[C@@H](CCCCN)C(=O)N[C@@H](CCCCN)C(=O)O [4N1K, reference compound]
- Kd ([1]; Table 2, average of at least three independent experiments, NPD = Non Pertinent Data, read-out: Kd (μM) (OR)): 19 ± 1.6 µM
- Kd ([1]; Table 3, average of two or more measurements, NPD = Non Pertinent Data, read-out: Kd): 19 ± 1.6 µM
- selective elimination of leukemic B-cells versus healthy B-lymphocytes [2]: specifically eliminates leukemic B-cells
- induction of PCD ([2]; soluble peptide): induces caspase-independent PCD
- MEC-1 Cell Death (%) 2 h ([3]; Table 2, NPD = Non Pertinent Data): 23%
- MEC-1 Cell Death (%) 2 h, [peptides] = 200 μM [3]: 23%

Compound: CSCC[C@H](NC(=O)[C@@H](NC(=O)[C@@H](NC(=O)[C@H](Cc1ccc(O)cc1)NC(=O)[C@H](Cc1ccccc1)NC(=O)[C@H](CCCNC(=N)N)NC(=O)[C@H](N)CCCCN)C(C)C)C(C)C)C(=O)N[C@@H](C)C(=O)N[C@@H](CCCCN)C(=O)N[C@H](CCCCN)C(=O)O [W8/A, kRFYVVM(A)Kk] (H-[dK]RFYVVMAK[dK]-OH; N-terminus and C-terminus assumed)
- Kd (μM) [1, 8]: NPD
- MEC-1 Cell Death (%) 2 h, [peptides] = 200 μM [3]: 35%

Compound: CSCC[C@H](NC(=O)[C@@H](NC(=O)[C@@H](NC(=O)[C@H](Cc1ccc(O)cc1)NC(=O)[C@H](C)NC(=O)[C@H](CCCNC(=N)N)NC(=O)[C@H](N)CCCCN)C(C)C)C(C)C)C(=O)N[C@@H](Cc1c[nH]c2ccccc12)C(=O)N[C@@H](CCCCN)C(=O)N[C@H](CCCCN)C(=O)O [F3/A, kR(A)YVVMWKk] (H-[dK]RAYVVMWK[dK]-OH; N-terminus and C-terminus assumed)
- Kd (μM) [1, 8]: NPD
- MEC-1 Cell Death (%) 2 h, [peptides] = 200 μM [3]: 6%

Now from value to compound, other results behind:

- solubility in water [4]: low solubility in water
Compound: CCCC[C@H](NC(=O)[C@@H](NC(=O)[C@@H](NC(=O)[C@H](Cc1ccccc1)NC(=O)[C@H](Cc1ccccc1)NC(=O)[C@H](CCCNC(=N)N)N(C)C(=O)[C@H](N)CCCCN)C(C)C)C(C)C)C(=O)N[C@@H](Cc1c[nH]c2ccccc12)C(=O)N[C@@H](CCCCN)C(=O)N[C@H](CCCCN)C(=O)O [PKT16-FF, H-(D)K ψ(CONMe)R F F V V X W K (D)K-OH] (H-[dK][NMeR]FFVV[Nle]WK[dK]-OH)

- Kd ([1]; Table 5, apparent Kd, biolayer interferometry, read-out: Kd (BI)): 74 µM
Compound: CCCC[C@H](NC(=O)[C@@H](NC(=O)[C@@H](NC(=O)[C@H](Cc1ccc(O)cc1)NC(=O)[C@H](Cc1ccccc1)NC(=O)[C@H](CCCNC(=N)N)N(C)C(=O)[C@H](N)CCCCN)C(C)C)C(C)C)C(=O)N[C@@H](Cc1c[nH]c2ccccc12)C(=O)N[C@@H](CCCCN)C(=O)N[C@H](CCCCN)C(=O)O [PKT16, H-(D)K ψ(CONMe)R F Y V V X W K (D)K-OH] (H-[dK][NMeR]FYVV[Nle]WK[dK]-OH)
- deaths on OSU cells ([5]; 25 μM): 11.1%
- deaths on OSU cells ([5]; 50 μM): 17.9%
- deaths on OSU cells ([5]; 100 μM): 52.7%
- sensitivity to treatment with PKT16 [6]: sensitive
- Cell Death (MEC-1, 2 h) ([3]; Table 4): 68%
- PCD activity relative to PKHB1 [7]: improved PCD activity
